Test results published in patent publication US10406134B2, “Methods of treating an overweight subject” (Zafgen, Inc., priority 2010, dated 2019).

Tests used:
[1] = 7-day oral weight loss study in diet-induced obese mice; type: in vivo, C57BL/6NTac mice; details: DIO mice; for weight change over the course of the study: 1.0 mg/kg oral once a day for 7 days
Procedure: A weight loss study was conducted in obese mice. The mice in this study were not genetically obese, but prior to and during the study, obesity was induced by a high-fat diet. Twelve week-old C57BL/6NTac mice, maintained on a 60% fat diet prior to and during the study, were separated into seven groups, eight animals per group. Average body weight of the mice was approximately 47 g at the start of the study.
Each of six groups was orally administered 1.0 mg/kg of a compound ([…] compounds B. C, D, E, F and G as disclosed herein), in 10% gelucire in deoinised water. Each of these six groups was administered a different compound. One group was orally administered fumagillin at 1.0 mg/kg (group 201) in 10% gelucire in deoinised water, and one group was administered 10% gelucire in deoinised water (vehicle). Mice received administrations once a day for 7 days.
(Data analyzed by ANCOVA with body weight on Day 1 as covariate followed by multiple tests against vehicle group: *p<0.05; **p<0.01, ***p<0.001.)
A weight loss study was conducted in obese mice, similar to Example 5. Twelve week-old C57BL/6NTac mice, maintained on a 60% fat diet prior to and during the study, were separated into seven groups, eight animals per group. Average body weight of the mice was approximately 47 g at the start of the study.
The group was orally administered […] of a compound H, in 10% gelucire in deoinised water. Mice received administrations once a day for 7 days. After 7 days, the average weight loss of the mice was 13.2%.

[2] = 28-day oral gavage in high fat diet C57BL/6 mice, fat and lean tissue change; type: in vivo; details: 0.1 or 0.3 mg/kg oral gavage, 28 days
Procedure: C57BL/6 mice were conditioned on a low-fat diet (LF), a high fat diet (HF), or a high-fat diet and treated with fumagillin (ZGN-201) administered by oral gavage at doses of 0.1 or 0.3 mg/kg for 28 days. […] To determine whether the weight loss resulted from loss of fat or loss of lean tissue, the percentage change in fat tissue and lean tissue was determined for LF mice, HF mice, HF mice treated with 0.1 mg/kg fumagillin, and HF mice treated with 0.3 mg/kg fumagillin.
Upon histological examination, the studies of treated obese mice show no effect on growth of new blood vessels in growing fat depots and no effect on blood vessel size or density when compared to animals in which weight loss has been induced by simple energy (food) restriction.

TXN in Cos-1 cells = assay: FLAG-tagged TXN expression in transfected Cos-1 cells (gel); type: cell-based
Procedure: (§1) EC50 of fumagillin to increase TXN levels is <10 nM.

[3] = 8 week oral treatment in overweight dogs, body weight and metabolic parameters; type: in vivo
Procedure: The effects of an 8 week treatment with ZGN-201 (ZGN) on body weight and metabolic parameters in 6 overweight dogs (3 HFF and 3 chow-fed (OWC)) were evaluated. […] FI, BW, blood chemistry and hematology, beta-hydroxybutyrate (BHB), and glycerol were assessed weekly. Oral glucose tolerance tests (OGTT, 0.9 g/kg initial BW) were performed at the end of PT, ZGNTx, and WO.

[4] = 10-day oral gavage in C57BL/6 mice conditioned on a high fat diet; type: in vivo; details: 0.3 or 3 mg/kg daily oral gavage, 10 days
Description: (§2) Oral administration of the MetAP2 inhibitor fumagillin causes an increase in circulating ketone bodies, as measured by concentration of beta hydroxybutyrate, which indicates an increase in the breakdown of stored fat.

[5] = test system: Thioredoxin-1 (TXN) in B16F10 cells; assay: N-terminal chymotryptic fragments of TXN measured by LC/MS in B16F10 cells treated with fumagillin; type: cell-based
Procedure: B16F10 cells were treated with increasing concentrations of fumagillin. N-terminal chymotryptic fragments of TXN were measured by liquid chromatography/mass spectrometry (LC/MS). […] The EC50 of fumagillin to increase Met-TXN acetylated Met-TXN levels is <10 nM.

TXN in 293T cells = assay: FLAG-tagged TXN expression in transfected 293T cells (gel); type: cell-based; details: 293T cells transfected with FLAG-tagged TXN
Procedure: as §1

[6] = 14-day treatment of high fat diet-fed C57BL/6 mice, body weight and food intake; type: in vivo; details: 1 mg/kg
Procedure: High fat diet-fed C57BL/6 mice were treated with 1 mg/kg of the MetAP2 inhibitor fumagillin (ZGN-201, squares) or vehicle (diamonds) for 14 days (FIG. 10). Body weights (left panel) were determined daily, while food intake (right panel) was assessed every other day by measuring the food consumed by each cage of three mice over the two day period. Data shown in FIG. 10 are means±SEM, n=9 animals. […] First, during the initial two to three days of treatment, no overt changes in food intake or body weight are observed. During this time period key changes in MetAP2 substrates occur, including glyceraldehyde-3-phosphate dehydrogenase and thioredoxin (data not shown). Second, the animals enter a period of rapid weight loss that proceeds until essentially all excess fat deposits are consumed. During this second period, fat oxidation is enhanced and food intake is inhibited.
Weight loss following treatment with therapeutically relevant doses of MetAP2 inhibitors stops once animals attain a normal body composition. […] This third phase can be maintained indefinitely provided the drug is continued (see FIG. 10), or presumably can be maintained in practice through other complementary pharmacologic, dietary, or lifestyle interventions.

[7] = Oral glucose tolerance test (OGTT) in overweight dogs; type: in vivo
Procedure: The effects of an 8 week treatment with ZGN-201 (ZGN) on body weight and metabolic parameters in 6 overweight dogs (3 HFF and 3 chow-fed (OWC)) were evaluated. The study was comprised of three phases—pretreatment (PT: 4 weeks), treatment (ZGNTx: 8 weeks), and washout (WO: 4 weeks). FI, BW, blood chemistry and hematology, beta-hydroxybutyrate (BHB), and glycerol were assessed weekly. Oral glucose tolerance tests (OGTT, 0.9 g/kg initial BW) were performed at the end of PT, ZGNTx, and WO.

[8] = 250-day diet admixture in C57BL/6 mice conditioned on a high fat diet; type: in vivo
Procedure: as §2
In addition to showing an increase in beta hydroxybutyrate concentration, C57BL/6 mice conditioned on a high fat diet and treated with fumagillin (ZGN-201) as a diet admixture (1 mg/kg daily for 250 days) also experienced a reduction in body fat by approximately 40 percent (FIG. 6). Once attaining the maximum weight reduction, mice treated daily with 1 mg/kg fumagillin maintained a weight that was 25% less than that of age-matched mice maintained on normal mouse chow diet (lean mice, FIG. 6) for the duration of the experiment.
Adipose tissue in mice fed a high-fat diet show distinctive crown-like structures not seen in lean mice. These crown-like structures were also absent from the adipose tissue of fumagillin-treated mice.

[9] = High-fat high fructose dogs, WO
[10] = High-fat high fructose dogs, ZGNTx
[11] = diet admixture 1 mg/kg daily, 250 days

Compound `CCN(CC)C/C=C\c1ccccc1S(=O)(=O)Nc1ccc2c(c1C(=O)O)CCCC2` [H] has an average weight loss ([1]; 100.0 mg/kg oral once a day, after 7 days) of 13.2%.

For `CO[C@@H]1[C@H](OC(=O)NCCC2CCCN2C)CC[C@]2(CO2)[C@H]1[C@@]1(C)O[C@@H]1CC=C(C)C` (some centres unmarked) [C], the “weight change over the course of the study” value (from here on “weight change over the course”) [1] was “lost weight”.

For `CO[C@@H]1[C@H](OC(=O)N[C@@H](C(N)=O)C(C)C)CC[C@]2(CO2)[C@H]1[C@@]1(C)O[C@@H]1CC=C(C)C` [B], the “weight change over the course” value [1] was “lost weight”.

With `CO[C@@H]1[C@H](OC(=O)/C=C/C=C/C=C/C=C/C(=O)O)CC[C@]2(CO2)[C@H]1[C@@]1(C)O[C@@H]1CC=C(C)C` [fumagillin] the body weight [2] was “reduction in body weight down to the level of low fat fed mice”, the reduction in fat ([2]; HF mice) was 40-50% and the “reduction in lean tissue” value ([2]; HF mice) was 5-10%. For the same compound, the EC50 (TXN in Cos-1 cells; Chlorocebus aethiops, FIG. 4 gel, cell line (Cos-1 or 293T) not specified, read-out: EC50 to increase TXN levels) was less than 10 nM, the “expression of TXN” value (TXN in Cos-1 cells; Cos-1 cells transfected with FLAG-tagged TXN) was “significantly increased” and the “weight change over the course” value [1] was “lost the most weight”. For the same compound, the “reduction of FI” value ([3]; HFF dogs) was 29%, the “loss of body weight” value ([3]; HFF dogs, daily oral, 8 weeks) was “approximately 8%” and the “loss of excess BW” value ([3]; HFF dogs, daily oral, 8 weeks) was 81%. For the same compound, the “weight loss sustained after discontinuation of treatment” value ([3]; HFF dogs, eight to ten weeks following discontinuation) was “approximately one half of the initial weight loss was sustained”, the BHB [3, 9] was 39 ± 7 µM and the FI [3, 9] was 1657 ± 147 kcal/day. The Glycerol [3, 9] was 66 ± 25 µM, the BW ([3]; High-fat high fructose dogs, WO (4 weeks washout)) was 31.7 ± 2.9 kg and the BHB [3, 10] was 76 ± 9 µM. For the same compound, the FI [3, 10] was 1187 ± 258 kcal/day, the Glycerol [3, 10] was 131 ± 54 µM and the BW ([3]; High-fat high fructose dogs, ZGNTx (8 weeks treatment)) was 30.8 ± 3.4 kg. The “reduction of FI” value ([3]; OWC dogs) was 9%, the weight gain ([3]; OWC dogs, daily oral, 8 weeks) was “inhibited weight gain” and the BHB ([3]; Overweight chow dogs, WO) was 44 ± 5 µM. The BW ([3]; Overweight chow dogs, WO) was 18.6 ± 0.7 kg, the FI ([3]; Overweight chow dogs, WO) was 1116 ± 22 kcal/day and the Glycerol ([3]; Overweight chow dogs, WO) was 86 ± 33 µM. It also gave a BHB ([3]; Overweight chow dogs, ZGNTx) of 48 ± 11 µM, a BW ([3]; Overweight chow dogs, ZGNTx) of 17.8 ± 0.5 kg and an FI ([3]; Overweight chow dogs, ZGNTx) of 1255 ± 64 kcal/day. The Glycerol ([3]; Overweight chow dogs, ZGNTx) was 143 ± 26 µM, the BHB levels ([3]; overweight dogs, treatment) was “increased in HFF only” and the glycerol levels ([3]; overweight dogs, treatment) was “increased”. The beta hydroxybutyrate concentrations [4] was “increase”, the “free fatty acid concentration” value [4] was “without an increase” and the EC50 ([5]; Mus musculus, B16-F10, read-out: EC50 to increase Met-TXN acetylated Met-TXN levels) was less than 10 nM. For the same compound, the “accumulation of N-acetyl TXN(1-4)” value ([5]; increasing concentrations) was “significant accumulation”, the “cellular level of TXN containing an intact N-terminal methionine [TXN(1-4)]” value ([5]; increasing concentrations) was “significantly increased” and the “expression of TXN” value (TXN in 293T cells) was “significantly increased”. For the same compound, the “food intake during period of rapid weight loss” value ([6]; 14 days, second phase) was “inhibited”, the “food intake after weight loss reaches a nadir” value ([6]; third phase) was “returns to normal levels” and the “reduction in insulin secretion (C-peptide AUC)” value ([7]; end of 8 week treatment, OGTT) was 32%. For the same compound, the “reversal of the abnormality in the plasma glucose excursion during the OGTT” value ([7]; end of 8 week treatment, OGTT 0.9 g/kg) was 75%, the “improvement in plasma glucose after the drug was washed out” value ([7]; end of washout, OGTT) was “completely reversed” and the “retroperitoneal fat pad weight” value ([8]; 1 mg/kg daily, 250 days) was “more similar to that of age-matched lean mice”. For the same compound, the “size and appearance of epididymal fat, peri-renal fat and liver” value ([8]; 1 mg/kg daily, 250 days) was “more similar to that of age-matched lean mice”, the “maintained weight less than that of age-matched lean mice on normal chow” value ([8]; 1 mg/kg daily, after maximum weight reduction) was 25% and the “fasted glucose and insulin levels, insulin-glucose product” value ([8]; 1 mg/kg, high fat diet mice) was “more similar to that of age-matched lean mice”. The “hydroxybutyrate concentration at longer time points” value [8, 11] was “Increased hydroxybutyrate concentration persisted”, the “reduction in body fat” value [8, 11] was “approximately 40%” and the adipocyte size ([8]; high fat diet mice) was “more similar to that of age-matched lean mice”. For the same compound, the “crown-like structures in adipose tissue” value ([8]; high fat diet mice) was “absent” and the sensitivity to insulin ([8]; mice on a high fat diet) was “normalizes sensitivity to insulin”.
